From patent publication EP0091328B1, “Trans-4-aminobenz(c,d)indol-5-ol derivatives, their salts, their preparation, their use as medicaments and compositions containing them” (priority 1982, dated 1983)
Counter-ions that a name gives are not always drawn.

Legend:
[1] = test system: souris; test: Acute toxicity, lethal dose DL0 after oral administration; format: in vivo; details: mouse, maximal dose causing no mortality in 8 days
Source text: 4) Etude de la toxicité aiguë
On a évalué les doses létales DLo des différents composés testés après administration par voie orale chez la souris.
On appelle DLo la dose maximale ne provoquant aucune mortalité en 8 jours.

[2] = test system: rats mâles de souche WISTAR; test: Hypotensive activity in anaesthetised rats (carotid arterial pressure, intravenous administration); format: in vivo; details: anaesthetised Wistar rat, versus initial control pressure
Method: 1) Détermination de l'activité hypotensive
L'activité hypotensive a été étudiée sur des rats mâles de souche WISTAR pesant 300 g environ et anesthésiés au nembutal (50 mg/kg par voie intraveineuse).
Le produit testé a été administré par voie intraveineuse dans la veine jugulaire.
La pression artérielle càrotidienne a été mesurée avant et après administration du produit testé.
Le tableau ci-après indique les variations exprimées en pourcentage de la pression artérielle après- administration du produit testé par rapport à la pression artérielle témoin initiale.

Compound	DL0 [1] [mg/kg]	Variation % de la pression artérielle 30 minutes après l'administration ([2]; dose 0,1 mg/kg) [%]	Variation % de la pression artérielle 30 minutes après l'administration ([2]; dose 1 mg/kg) [%]
N[C@@H]1CC2CNc3cccc(c32)[C@H]1O (mixture of isomers) [Exemple 1, dichlorhydratede trans 4RS 4-amino 1,2,2a.3,4,5-hexahydro benz(c,d) indol-5-0l]	>400		
CN[C@@H]1CC2CNc3cccc(c32)[C@H]1O (mixture of isomers) [Exemple 2, Fumarate neutrede trans 4RS 4-(méthylamino) 1,2,2a,3,4,5-hexahydro benz(c,d) indol-5-0l]	>800		
CCN[C@@H]1CC2CNc3cccc(c32)[C@H]1O (mixture of isomers) [Exemple 3, Fumarate neutrede trans 4RS 4-(éthylamino) 1,2,2a,3,4,5-hexahydro benz(c,d) indol-5-ol]	>400		
CN[C@@H]1Cc2c[nH]c3cccc(c23)[C@H]1O (racemic) [Exemple 7, Chlorhydratede trans 4RS 4-(méthylamino) 1,3,4,5-tétrahydro benz(c,d) indol-5-0l]	>400		
CCN[C@@H]1Cc2c[nH]c3cccc(c23)[C@H]1O (racemic) [Exemple 8, Chlorhydratede trans 4RS 4-(éthylamino) 1,3,4,5-tétrahydro benz(c,d) indol-5-0l]	80	-13	
CCCN[C@@H]1Cc2c[nH]c3cccc(c23)[C@H]1O (racemic) [Exemple 9, Chlorhydratede trans 4RS 4-(propylamino) 1,3,4,5-tétrahydro benz(c,d) indol-5-0l]	60		-30
CC(C)N[C@@H]1Cc2c[nH]c3cccc(c23)[C@H]1O (racemic) [Exemple 10, Chlorhydratede trans 4RS 4-(isopropylamino) 1,3,4,5-tétrahydro benz(c,d) indol-5-0l]	100		-24
trans 4RS 4-(isopropylamino) 1,,2a,3,4,5-hexahydrobenz(c,d) indol-5-ol [Exemple 5]	200		
trans 4RS 4-(propylamino) 1,2,2a,3,4,5-hexahydrobenz(c,d) indol-5--ol [Exemple 4]	200		
